Laboratory results from ChEMBL document CHEMBL1201862, “PubChem BioAssay data set” (2004).
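Grown in 96-well plates, cells were treated for 48 hours with each compound at five concentrations. Insufficient inhibition: endpoint recorded as highest concentration tested. GI50 marks 50% less growth.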 Active and inactive are the calls of the source. Rule as the data show it: active = GI50 up to about 1.1 µM and inactive = higher.

What was measured:
Assay in all cases: NCI tumour cell line growth inhibition, 48 h
EKVX = system: EKVX
786-0 = system: 786-0
NCI-H522 = system: NCI-H522
HOP-62 = system: HOP-62
ACHN = system: ACHN
T47D = system: T47D
Hs-578T = system: Hs-578T
COLO 205 = system: COLO 205
SF-539 = system: SF-539
MOLT-4 = system: MOLT-4
LOX IMVI = system: LOX IMVI
UACC-257 = system: UACC-257
M14 = system: M14
NCI-H460 = system: NCI-H460
IGROV-1 = system: IGROV-1
NCI/ADR-RES = system: NCI/ADR-RES
SW-620 = system: SW-620
KM12 = system: KM12
SNB-75 = system: SNB-75
NCI-H23 = system: NCI-H23
A549 = system: A549
HCC 2998 = system: HCC 2998
NCI-H226 = system: NCI-H226
MDA-MB-231 = system: MDA-MB-231
SF-295 = system: SF-295
RPMI-8226 = system: RPMI-8226
PC-3 = system: PC-3
SK-MEL-5 = system: SK-MEL-5
UACC-62 = system: UACC-62
SK-MEL-28 = system: SK-MEL-28
K562 = system: K562
CCRF-CEM = system: CCRF-CEM
SN12C = system: SN12C
MDA-N = system: MDA-N
SNB-19 = system: SNB-19
DU-145 = system: DU-145
TK-10 = system: TK-10
U-251 = system: U-251
OVCAR-3 = system: OVCAR-3
RXF 393 = system: RXF 393
OVCAR-4 = system: OVCAR-4
CAKI-1 = system: CAKI-1
MDA-MB-435 = system: MDA-MB-435
UO-31 = system: UO-31
HL-60 = system: HL-60
HT-29 = system: HT-29
MCF7 = system: MCF7
SR = system: SR
Malme-3M = system: Malme-3M
HCT-15 = system: HCT-15
OVCAR-5 = system: OVCAR-5
SK-MEL-2 = system: SK-MEL-2
SF-268 = system: SF-268
SK-OV-3 = system: SK-OV-3
HCT-116 = system: HCT-116
A498 = system: A498
HOP-92 = system: HOP-92
BT-549 = system: BT-549
OVCAR-8 = system: OVCAR-8

Measured: GI50

O=C(Nc1ccccc1)c1nn(-c2cc(S(=O)(=O)O)c([N+](=O)[O-])cc2Cl)[n+](-c2cc(S(=O)(=O)[O-])c([N+](=O)[O-])cc2Cl)n1
inactive: EKVX > 100 µM | 786-0 > 100 µM | NCI-H522 > 100 µM | HOP-62 > 100 µM | ACHN > 100 µM | T47D > 100 µM | Hs-578T > 100 µM | COLO 205 > 100 µM | SF-539 > 100 µM | MOLT-4 > 100 µM | LOX IMVI 38.3 µM | UACC-257 > 100 µM | M14 > 100 µM | NCI-H460 > 100 µM | IGROV-1 > 100 µM | NCI/ADR-RES > 100 µM | SW-620 > 100 µM | KM12 > 100 µM | SNB-75 > 100 µM | NCI-H23 > 100 µM | A549 > 100 µM | HCC 2998 > 100 µM | NCI-H226 > 100 µM | MDA-MB-231 43.6 µM | SF-295 > 100 µM | RPMI-8226 > 100 µM | PC-3 > 100 µM | SK-MEL-5 > 100 µM | UACC-62 > 100 µM | SK-MEL-28 > 100 µM | K562 > 100 µM | CCRF-CEM > 100 µM | SN12C > 100 µM | MDA-N > 100 µM | SNB-19 > 100 µM | DU-145 > 100 µM | TK-10 > 100 µM | U-251 > 100 µM | OVCAR-3 > 100 µM | RXF 393 > 100 µM | OVCAR-4 > 100 µM | CAKI-1 > 100 µM | MDA-MB-435 > 100 µM | UO-31 > 100 µM | HL-60 40.8 µM | HT-29 > 100 µM | MCF7 > 100 µM | SR > 100 µM | Malme-3M > 100 µM | OVCAR-5 > 100 µM | SK-MEL-2 > 100 µM | SF-268 > 100 µM | SK-OV-3 > 100 µM | HCT-116 > 100 µM
> 100 µM: HCT-15

CCOP(=O)(OCC)/C(=C\n1c(=S)[nH]c2cc(C)ccc21)C(=O)OC
inactive: EKVX 45.8 µM | 786-0 > 100 µM | HOP-62 > 100 µM | ACHN > 100 µM | T47D > 100 µM | COLO 205 > 100 µM | SF-539 > 100 µM | MOLT-4 > 100 µM | LOX IMVI > 100 µM | UACC-257 > 100 µM | M14 > 100 µM | NCI-H460 > 100 µM | IGROV-1 > 100 µM | A498 > 100 µM | NCI/ADR-RES > 100 µM | SW-620 > 100 µM | KM12 > 100 µM | SNB-75 > 100 µM | NCI-H23 > 100 µM | A549 > 100 µM | HCC 2998 > 100 µM | HOP-92 > 100 µM | NCI-H226 > 100 µM | MDA-MB-231 > 100 µM | SF-295 > 100 µM | BT-549 > 100 µM | SK-MEL-5 > 100 µM | UACC-62 > 100 µM | SK-MEL-28 > 100 µM | SN12C > 100 µM | MDA-N > 100 µM | SNB-19 > 100 µM | DU-145 > 100 µM | TK-10 > 100 µM | U-251 > 100 µM | OVCAR-3 > 100 µM | RXF 393 > 100 µM | OVCAR-4 > 100 µM | CAKI-1 > 100 µM | MDA-MB-435 > 100 µM | UO-31 > 100 µM | HL-60 42.6 µM | HT-29 > 100 µM | MCF7 > 100 µM | OVCAR-5 > 100 µM | SK-MEL-2 > 100 µM | SF-268 > 100 µM | SK-OV-3 > 100 µM | OVCAR-8 > 100 µM | HCT-116 > 100 µM
> 100 µM: HCT-15
